The text below walks through data of patent US6969711B2, “Cyclic diamine compounds and medicine containing the same” (Kowa Company, Ltd., priority 1997, dated 2005).

Structures are written as SMILES. ≈ marks a conversion by molar mass, not a printed value.

One series deals with J774 cells. Nature of the series: ACAT inhibitory action (anti-foaming action) in J774 cells. In kind it is cell-based. The conditions noted are these: Mus musculus, 10 μg/ml 25-OH cholesterol, 18 hours, cholesterol ester per protein, read-out: Enzyme (J774) IC50.
Series [1] can be described thus: Disintegration test (solubility in liquid No. 1 of the Japanese Pharmacopoeia). The conditions noted are these: simulated gastric fluid, thermodynamic from solid; liquid No. 1 for disintegration test (Japanese Pharmacopoeia), pH 1.2, shaken two hours, room temperature, 0.45 μm filtrate. In kind it is physicochemical. From the text:
Compounds of the present invention and the compounds mentioned in the previously-filed Japanese Patent Applications Hei-09/88660 (hereinafter, referred to as “A”) and Hei-09/90146 (hereinafter, referred to as “B”) as controls were suspended in a liquid No. 1 for disintegration test regulated by the Japanese Pharmacopoeia, shaken for two hours, allowed to stand at room temperature for one hour and filtered through a membrane filter of 0.45 μm. Absorbance of a mixture of this filtrate with methanol in the same amounts was measured and, from the previously-determined ε1% 1cm values, solubility was calculated.

In a further series the test system is HepG2 cells. Briefly: ACAT inhibitory action (anti-foaming action) in HepG2 cells. In kind it is cell-based. The conditions noted are these: Homo sapiens, 10 μg/ml 25-OH cholesterol, 18 hours, cholesterol ester per protein, read-out: Enzyme (HepG2) IC50.

On to `CCCCCCCCCN(CC(C)(C)C)C(=O)N[C@H]1CCCC[C@@H]1OC(=O)CCNC(=O)C1OC(C)(C)OCC1(C)C` (some centres unmarked) [Control 3, reference compound], for which the half-maximal inhibitory concentration (IC50) (commonly the midpoint of a concentration-inhibition curve) with J774 cells amounted to 320 nM.

In the case of `CC(C)c1cccc(C(C)C)c1NC(=O)CCCCCSc1nc2ccccc2o1` [Control 6, 6-(Benzoxazol-2-ylthio)-N-(2,6-diisopropylphenyl)hexanamide, reference compound], the concentration in solution in series [1] (solubility at 2 h) was 0.05 µg/mL (≈ 0.000118 mM).

Regarding `CC(C)c1cccc(C(C)C)c1NC(=O)CCCCCSc1nc2cc(CN(C)C)ccc2o1` [Control 7, 6-[5-(N,N-Dimethylaminomethyl)-benzoxazol-2-ylthio]-N-(2,6-diisopropylphenyl)hexanamide, reference compound], the solubility – broadly, the dissolved amount per volume that the medium holds – at 2 h in series [1] is 360 to 400 µg/mL (≈ 0.747 to 0.83 mM).

Regarding `CC(C)c1cccc(C(C)C)c1NC(=O)CCCCCSc1nc2cc(N(C)C)ccc2o1` [Control 8, 6-[5-(N,N-Dimethylamino)-benzoxazol-2-ylthio]-N-(2,6-diisopropylphenyl)hexanamide, reference compound], in series [1], the solubility at 2 h was 170 to 180 µg/mL (≈ 0.363 to 0.385 mM).

In series [1], `CC(C)c1cccc(C(C)C)c1NC(=O)CN1CCN(CCSc2nc3ccccc3o2)CC1` [Example 1, 2-[4-[2-(benzoxazol-2-ylthio)ethyl]-piperazin-1-yl]-N-(2,6-diisopropylphenyl)acetamide] returned a solubility at 2 h of 14000 µg/mL (≈ 29.1 mM).

Regarding `COC(=O)c1cccc2oc(SCCN3CCN(CC(=O)Nc4c(C(C)C)cccc4C(C)C)CC3)nc12` [Example 5, 2-[4-[2-(4-methoxycarbonylbenzoxazol-2-ylthio)ethyl]-piperazin-1-yl]-N-(2,6-diisopropylphenyl)acetamide], the melting point (commonly the temperature, or range, at which the solid turns liquid) was in the range of 173 to 175 °C. Further, the half-inhibitory concentration (IC50) in the series with J774 cells was 100 nM. Moreover, the half-inhibitory concentration (IC50) with HepG2 cells came to 1450 nM.

`CC(C)c1cccc(C(C)C)c1NC(=O)CN1CCN(CCSc2nc3ncccc3o2)CC1` [Example 6, 2-[4-[2-(oxazolo[4,5-b]pyridine-2-ylthio)ethyl]-piperazin-1-yl]-N-(2,6-diisopropylphenyl)acetamide]: the melting point lay in the range of 153 to 154 °C. Further, the solubility at 2 h in series [1] was 35000 µg/mL (≈ 72.7 mM).

Compound `COC(=O)c1cccc2nc(SCCCN3CCN(CC(=O)Nc4c(C(C)C)cccc4C(C)C)CC3)oc12` [Example 10, 2-[4-[3-(7-methoxycarbonylbenzoxazol-2-ylthio)propyl]piperazin-1-yl]-N-(2,6-diisopropylphenyl)acetamide] returned a melting point of 135 to 136 °C. In addition, the half-maximal inhibitory concentration (IC50) with J774 cells came to 270 nM. Also, the concentration for half-maximal inhibition (IC50) with HepG2 cells came to 4900 nM.

In the case of `CC(C)c1cccc(C(C)C)c1NC(=O)CN1CCCN(CCCSc2nc3ccccc3o2)CC1` [Example 13, 2-[4-[3-(benzoxazol-2-ylthio)propyl]-homopiperazin-1-yl]-N-(2,6-diisopropylphenyl)acetamide], the melting point is 109 to 111 °C. In series [1], this compound returned a solubility at 2 h of 7400 µg/mL (≈ 14.5 mM).

`CSc1cc(C)nc(SC)c1NC(=O)CN1CCN(CCSc2nc3ccccc3o2)CC1` [Example 24, 2-[4-[2-(benzoxazol-2-ylthio)ethyl]piperazin-1-yl]-N-(2,4-bis(methylthio)-6-methyl-3-pyridyl)acetamide] registered a melting point of 140 to 141 °C. The compound further yielded a solubility at 2 h in series [1] of 17000 µg/mL (≈ 33.7 mM).

As to `CC(C)c1cc(O[C@@H]2O[C@H](CO)[C@@H](O)[C@H](O)[C@H]2O)cc(C(C)C)c1NC(=O)CN1CCN(CCSc2nc3cccc(C(F)(F)F)c3o2)CC1` [Example 134, 2-[4-[2-(7-trifluoromethylbenzoxazol-2-ylthio)ethyl]piperazin-1-yl]-N-[2,6-diisopropyl-4-(β-D-glucopyranosyl)oxyphenyl]acetamide], the melting point fell in the range of 130 to 133 °C.

Regarding `CCCCCCCN(CCN1CCN(CCSc2nc3ncccc3o2)CC1)C(=O)Nc1c(C(C)C)cc(O)cc1C(C)C` [Example 139, N′-(2,6-diisopropyl-4-hydroxyphenyl)-N-heptyl-N-[2-[4-[2-(oxazolo[4,5-b]pyridin-2-ylthio)ethyl]piperazin-1-yl]ethyl]urea], the melting point lay within 100 to 102 °C.

`CC(C)c1cc(CO)cc(C(C)C)c1NC(=O)CN1CCN(CCSc2nc3cccc(C(F)(F)F)c3o2)CC1` [Example 140, 2-[4-[2-(7-trifluoromethylbenzoxazol-2-ylthio)ethyl]piperazin-1-yl]-N-[2,6-diisopropyl-4-hydroxymethylphenyl]acetamide]: the melting point was in the range of 146 to 148 °C.

`CC(C)c1cccc(C(C)C)c1NC(=O)CN1CCN(CCOc2nc3ccccc3[nH]2)CC1` [Example 154, 2-[4-[2-(benzimidazol-2-yloxy)ethyl]piperazin-1-yl]-N-(2,6-diisopropylphenyl)acetamide] registered a melting point of 205 to 206 °C.

Regarding `CC(C)c1ccc(F)c(C(C)C)c1NC(=O)CN1CCN(CCSc2nc3ccccc3o2)CC1` [Example 155, 2-[4-[2-(benzoxazol-2-ylthio)ethyl]piperazin-1-yl]-N-(2,6-diisopropyl-3-fluorophenyl)acetamide], the melting point is 142 to 144 °C.

`CC(C)c1cc(O)cc(C(C)C)c1NC(=O)CN1CCN(CCSc2nc3ccccc3[nH]2)CC1` [Example 156, 2-[4-[2-(benzimidazol-2-ylthio)ethyl]piperazin-1-yl]-N-(2,6-diisopropyl-4-hydroxyphenyl)acetamide] showed a melting point of 241 to 242 °C.
